Experimental data published in ChEMBL document CHEMBL5465560, “Selectivity Literature for EUbOPEN Chemogenomic Library” (2024).

Key:
[1] = molecular target: Mitogen-activated protein kinase kinase kinase kinase 1 (Homo sapiens) (UniProt Q92918); conditions: at 10 µM
[2] = molecular target: Dual specificity protein kinase CLK2 (Homo sapiens, UniProt P49760); experiment: Selectivity interaction (KinomeScan (DiscoverX)) EUB0000092b CLK2; conditions: at 10 µM
[3] = test system: Phosphatidylinositol 4,5-bisphosphate 3-kinase catalytic subunit alpha isoform (Homo sapiens), P42336 [C420R]; experiment: (§1) Selectivity interaction (KinomeScan (DiscoverX)) EUB0000092b PIK3CA; conditions: at 10 µM
[4] = test system: Phosphatidylinositol 4,5-bisphosphate 3-kinase catalytic subunit alpha isoform (Homo sapiens), P42336 [E542K]; experiment: as §1; conditions: at 10 µM
[5] = test system: Phosphatidylinositol 4,5-bisphosphate 3-kinase catalytic subunit alpha isoform (Homo sapiens), P42336 [E545A]; experiment: as §1; conditions: at 10 µM
[6] = test system: Phosphatidylinositol 4,5-bisphosphate 3-kinase catalytic subunit alpha isoform (Homo sapiens), P42336 [E545K]; experiment: as §1; conditions: at 10 µM
[7] = test system: Phosphatidylinositol 4,5-bisphosphate 3-kinase catalytic subunit alpha isoform (Homo sapiens), P42336 [H1047L]; experiment: as §1; conditions: at 10 µM
[8] = test system: Phosphatidylinositol 4,5-bisphosphate 3-kinase catalytic subunit alpha isoform (Homo sapiens), P42336 [M1043I]; experiment: as §1; conditions: at 10 µM
[9] = test system: Phosphatidylinositol 4,5-bisphosphate 3-kinase catalytic subunit alpha isoform (Homo sapiens), P42336 [Q546K]; experiment: as §1; conditions: at 10 µM
[10] = molecular target: T1, Dual specificity mitogen-activated protein kinase kinase 4 (Homo sapiens) (UniProt P45985); experiment: Selectivity interaction (KinomeScan (DiscoverX)) EUB0001550a MAP2K4; conditions: at 1 µM
T1 sequence (whole entry): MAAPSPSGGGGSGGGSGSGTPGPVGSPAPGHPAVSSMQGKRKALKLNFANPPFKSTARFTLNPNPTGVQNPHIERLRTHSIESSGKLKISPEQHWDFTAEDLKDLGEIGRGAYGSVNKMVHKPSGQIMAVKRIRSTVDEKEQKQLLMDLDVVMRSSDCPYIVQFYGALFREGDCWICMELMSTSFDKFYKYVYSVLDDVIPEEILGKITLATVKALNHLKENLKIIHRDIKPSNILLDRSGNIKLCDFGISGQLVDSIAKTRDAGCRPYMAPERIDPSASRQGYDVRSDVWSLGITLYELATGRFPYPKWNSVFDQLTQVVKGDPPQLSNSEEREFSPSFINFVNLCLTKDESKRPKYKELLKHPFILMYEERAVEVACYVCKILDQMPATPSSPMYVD

[11] = molecular target: Serine/threonine-protein kinase PLK1 (Homo sapiens, UniProt P53350); experiment: Selectivity interaction (ProQinase) EUB0000171b PLK1
[12] = molecular target: Mitogen-activated protein kinase 1 (Homo sapiens, UniProt P28482); experiment: Selectivity interaction (Millipore kinase profiler) EUB0000124b MAPK1; conditions: at 10 µM
[13] = molecular target: Tyrosine-protein kinase BTK (Homo sapiens, UniProt Q06187); experiment: Selectivity interaction (Kinase panel (Z-LYTE Assay)) EUB0001632a BTK; conditions: at 10 µM
[14] = molecular target: T2, Casein kinase I isoform alpha-like (Homo sapiens) (UniProt Q8N752); experiment: Selectivity interaction (Kinase panel (Z-LYTE Assay)) EUB0001632a CSNK1A1L; conditions: at 10 µM
T2 sequence (whole entry): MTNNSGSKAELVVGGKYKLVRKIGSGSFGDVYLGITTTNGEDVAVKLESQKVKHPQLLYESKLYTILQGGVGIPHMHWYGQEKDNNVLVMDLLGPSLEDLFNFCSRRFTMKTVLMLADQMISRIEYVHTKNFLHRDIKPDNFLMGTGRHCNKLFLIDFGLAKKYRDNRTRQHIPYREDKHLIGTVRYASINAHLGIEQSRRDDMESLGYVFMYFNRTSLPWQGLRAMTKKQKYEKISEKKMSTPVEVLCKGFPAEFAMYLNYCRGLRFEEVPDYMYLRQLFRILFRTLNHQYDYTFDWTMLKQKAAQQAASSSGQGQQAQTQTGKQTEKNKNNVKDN

[15] = molecular target: T3, Ephrin type-B receptor 2 (Homo sapiens) (UniProt P29323); experiment: Selectivity interaction (KinomeScan (DiscoverX)) EUB0000045b EPHB2
T3 sequence (whole entry): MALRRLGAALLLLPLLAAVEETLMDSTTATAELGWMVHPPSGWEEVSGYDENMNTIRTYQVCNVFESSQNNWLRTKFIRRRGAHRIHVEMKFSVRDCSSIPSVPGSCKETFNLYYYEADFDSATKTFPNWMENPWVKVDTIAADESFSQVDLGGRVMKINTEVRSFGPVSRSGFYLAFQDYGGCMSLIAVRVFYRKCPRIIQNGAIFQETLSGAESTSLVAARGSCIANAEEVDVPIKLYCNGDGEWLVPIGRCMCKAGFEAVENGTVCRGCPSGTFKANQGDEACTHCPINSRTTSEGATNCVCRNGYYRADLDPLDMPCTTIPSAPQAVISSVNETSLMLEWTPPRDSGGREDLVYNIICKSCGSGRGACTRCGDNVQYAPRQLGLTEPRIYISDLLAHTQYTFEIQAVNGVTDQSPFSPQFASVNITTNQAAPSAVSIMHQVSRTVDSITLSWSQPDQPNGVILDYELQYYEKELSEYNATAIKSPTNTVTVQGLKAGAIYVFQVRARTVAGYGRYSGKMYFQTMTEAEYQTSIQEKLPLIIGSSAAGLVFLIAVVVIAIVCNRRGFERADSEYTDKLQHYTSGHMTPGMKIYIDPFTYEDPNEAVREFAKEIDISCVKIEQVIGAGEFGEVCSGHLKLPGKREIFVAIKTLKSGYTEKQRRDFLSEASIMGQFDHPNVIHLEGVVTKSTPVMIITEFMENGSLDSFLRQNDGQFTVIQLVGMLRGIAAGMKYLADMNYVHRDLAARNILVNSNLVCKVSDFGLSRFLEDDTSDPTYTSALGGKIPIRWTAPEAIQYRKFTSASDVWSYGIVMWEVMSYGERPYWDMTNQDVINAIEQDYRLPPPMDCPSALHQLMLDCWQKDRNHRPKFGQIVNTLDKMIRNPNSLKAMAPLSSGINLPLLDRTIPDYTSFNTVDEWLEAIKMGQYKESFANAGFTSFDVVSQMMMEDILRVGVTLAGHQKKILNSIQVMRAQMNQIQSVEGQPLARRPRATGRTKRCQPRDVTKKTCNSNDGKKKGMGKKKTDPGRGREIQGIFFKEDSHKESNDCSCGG

Serine/threonine-protein kinase PLK1, sequence (P53350 whole entry): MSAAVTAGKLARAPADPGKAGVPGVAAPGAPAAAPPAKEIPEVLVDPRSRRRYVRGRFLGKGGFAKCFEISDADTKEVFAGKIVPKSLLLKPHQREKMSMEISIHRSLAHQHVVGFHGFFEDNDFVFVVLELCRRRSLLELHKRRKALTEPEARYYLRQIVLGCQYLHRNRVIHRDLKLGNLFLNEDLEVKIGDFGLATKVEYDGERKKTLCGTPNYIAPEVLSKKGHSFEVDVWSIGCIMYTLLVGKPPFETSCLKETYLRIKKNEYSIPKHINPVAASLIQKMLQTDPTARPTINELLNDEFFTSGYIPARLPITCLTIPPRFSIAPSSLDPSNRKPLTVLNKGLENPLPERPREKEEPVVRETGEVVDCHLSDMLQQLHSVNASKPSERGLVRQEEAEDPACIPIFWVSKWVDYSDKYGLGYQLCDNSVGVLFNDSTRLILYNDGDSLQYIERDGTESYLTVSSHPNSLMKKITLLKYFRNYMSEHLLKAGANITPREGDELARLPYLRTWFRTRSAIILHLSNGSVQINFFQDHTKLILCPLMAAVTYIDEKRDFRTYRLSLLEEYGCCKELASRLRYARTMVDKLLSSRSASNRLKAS
Dual specificity protein kinase CLK2, sequence (P49760 whole entry, looked up, canonical isoform): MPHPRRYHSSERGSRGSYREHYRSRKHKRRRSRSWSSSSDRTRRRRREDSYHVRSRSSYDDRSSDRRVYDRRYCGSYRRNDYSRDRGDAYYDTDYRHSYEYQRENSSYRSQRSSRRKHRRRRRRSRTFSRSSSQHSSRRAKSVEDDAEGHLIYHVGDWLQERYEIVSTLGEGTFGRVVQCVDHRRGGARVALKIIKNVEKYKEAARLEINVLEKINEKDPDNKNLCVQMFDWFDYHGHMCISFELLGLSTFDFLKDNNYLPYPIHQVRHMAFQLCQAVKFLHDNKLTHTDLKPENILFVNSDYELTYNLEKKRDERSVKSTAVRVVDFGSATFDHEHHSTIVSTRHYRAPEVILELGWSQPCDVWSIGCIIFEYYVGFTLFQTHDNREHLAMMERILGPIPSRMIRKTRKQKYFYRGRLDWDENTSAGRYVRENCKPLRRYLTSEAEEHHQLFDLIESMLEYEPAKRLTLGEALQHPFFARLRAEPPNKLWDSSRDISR
Phosphatidylinositol 4,5-bisphosphate 3-kinase catalytic subunit alpha isoform (Homo sapiens), P42336 [E545K], sequence (P42336 whole entry E545K, canonical isoform): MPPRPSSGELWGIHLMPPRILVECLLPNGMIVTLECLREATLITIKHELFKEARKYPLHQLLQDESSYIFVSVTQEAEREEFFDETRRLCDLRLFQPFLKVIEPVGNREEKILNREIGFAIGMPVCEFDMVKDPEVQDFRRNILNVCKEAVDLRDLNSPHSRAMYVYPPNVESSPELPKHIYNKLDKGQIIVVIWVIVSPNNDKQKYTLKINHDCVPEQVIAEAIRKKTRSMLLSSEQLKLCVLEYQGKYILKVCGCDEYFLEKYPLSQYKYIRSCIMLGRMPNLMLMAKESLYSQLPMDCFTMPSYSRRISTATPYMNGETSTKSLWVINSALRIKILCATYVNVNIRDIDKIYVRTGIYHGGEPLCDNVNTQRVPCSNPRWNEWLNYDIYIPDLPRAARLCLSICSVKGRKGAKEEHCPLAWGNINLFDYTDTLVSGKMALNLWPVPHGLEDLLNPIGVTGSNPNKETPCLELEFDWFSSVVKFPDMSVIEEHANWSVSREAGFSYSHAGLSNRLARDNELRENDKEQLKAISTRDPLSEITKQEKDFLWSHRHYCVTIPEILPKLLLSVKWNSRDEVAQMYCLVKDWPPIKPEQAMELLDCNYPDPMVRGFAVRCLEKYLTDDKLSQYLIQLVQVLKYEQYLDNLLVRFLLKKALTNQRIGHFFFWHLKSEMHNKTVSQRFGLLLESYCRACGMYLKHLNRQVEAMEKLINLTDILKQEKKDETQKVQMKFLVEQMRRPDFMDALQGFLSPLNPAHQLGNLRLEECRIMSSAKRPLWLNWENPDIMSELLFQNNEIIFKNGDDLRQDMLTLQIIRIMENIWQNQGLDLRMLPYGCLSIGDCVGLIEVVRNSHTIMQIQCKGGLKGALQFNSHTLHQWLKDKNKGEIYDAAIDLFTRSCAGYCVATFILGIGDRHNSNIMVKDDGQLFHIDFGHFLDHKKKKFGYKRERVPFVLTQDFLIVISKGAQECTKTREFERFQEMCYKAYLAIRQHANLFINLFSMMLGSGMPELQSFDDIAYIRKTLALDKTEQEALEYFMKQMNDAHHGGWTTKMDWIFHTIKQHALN
Mitogen-activated protein kinase 1, sequence (P28482 whole entry): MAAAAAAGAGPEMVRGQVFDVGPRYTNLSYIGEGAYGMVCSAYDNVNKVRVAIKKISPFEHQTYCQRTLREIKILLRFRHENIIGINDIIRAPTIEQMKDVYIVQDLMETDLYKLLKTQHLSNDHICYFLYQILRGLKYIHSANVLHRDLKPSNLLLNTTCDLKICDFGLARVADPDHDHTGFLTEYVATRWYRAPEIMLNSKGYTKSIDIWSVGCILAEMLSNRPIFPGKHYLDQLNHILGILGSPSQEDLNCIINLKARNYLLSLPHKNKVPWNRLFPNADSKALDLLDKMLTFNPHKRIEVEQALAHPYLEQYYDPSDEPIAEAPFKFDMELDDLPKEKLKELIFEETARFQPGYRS
Phosphatidylinositol 4,5-bisphosphate 3-kinase catalytic subunit alpha isoform (Homo sapiens), P42336 [E542K], sequence (P42336 whole entry E542K, canonical isoform): as the sequence (P42336 whole entry E545K, canonical isoform) above, with E542K, K545E counted along it
Mitogen-activated protein kinase kinase kinase kinase 1 (Homo sapiens), sequence (Q92918 whole entry, looked up): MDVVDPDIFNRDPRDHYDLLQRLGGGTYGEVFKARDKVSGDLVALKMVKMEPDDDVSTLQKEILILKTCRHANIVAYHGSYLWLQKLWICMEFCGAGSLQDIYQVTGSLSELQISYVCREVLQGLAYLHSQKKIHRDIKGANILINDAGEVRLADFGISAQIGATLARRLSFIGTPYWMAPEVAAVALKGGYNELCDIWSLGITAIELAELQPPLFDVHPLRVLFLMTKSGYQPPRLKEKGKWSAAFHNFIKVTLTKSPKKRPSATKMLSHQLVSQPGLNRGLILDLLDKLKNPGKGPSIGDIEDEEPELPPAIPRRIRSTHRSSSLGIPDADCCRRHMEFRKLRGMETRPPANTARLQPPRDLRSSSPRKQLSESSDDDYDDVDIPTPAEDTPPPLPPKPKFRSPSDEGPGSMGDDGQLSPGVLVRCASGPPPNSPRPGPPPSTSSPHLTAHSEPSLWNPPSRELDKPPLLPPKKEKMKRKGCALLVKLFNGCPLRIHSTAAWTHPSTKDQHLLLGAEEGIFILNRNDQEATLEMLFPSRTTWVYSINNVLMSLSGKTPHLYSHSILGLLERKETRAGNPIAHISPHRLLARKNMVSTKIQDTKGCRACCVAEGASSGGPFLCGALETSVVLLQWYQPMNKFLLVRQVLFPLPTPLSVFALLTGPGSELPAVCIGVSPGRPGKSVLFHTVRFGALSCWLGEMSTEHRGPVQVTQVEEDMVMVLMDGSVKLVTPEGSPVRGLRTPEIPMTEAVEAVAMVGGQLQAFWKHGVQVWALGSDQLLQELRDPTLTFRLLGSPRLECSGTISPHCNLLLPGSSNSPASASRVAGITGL

CCN(CC)CCCCNc1ncc2cc(-c3cc(OC)cc(OC)c3)c(NC(=O)NC(C)(C)C)nc2n1
% of control [1]: 100%

CCC(=O)N1CCN(c2ccc(-n3c(=O)ccc4cnc5ccc(-c6cnc7ccccc7c6)cc5c43)cc2C(F)(F)F)CC1
% of control [2]: 65% | % of control [3]: 0.7% | % of control [4]: 1% | % of control [5]: 1% | % of control [6]: 0.6% | % of control [7]: 2.6% | % of control [8]: 8.6% | % of control [9]: 6.8%

CN(C)CC#Cc1ccc2[nH]c3c(c2c1)-c1nc(N)ncc1CCC3
% of control [10]: 12%

C=CC(=O)Nc1cccc(C(=O)Nc2ccc(Nc3cc(-c4[nH]c(SC)nc4C)ccn3)cc2)c1
% of control ([11]; at 1 µM): 98% | % of control ([11]; at 5 µM): 96%

CC(=O)Nc1cccc(-n2c(=O)n(C3CC3)c(=O)c3c(Nc4ccc(I)cc4F)n(C)c(=O)c(C)c32)c1
% of control [12]: 108%

Cn1cc(-n2cnc3c(NCc4nc5cc(Cl)c(Cl)cc5[nH]4)nc(N4CCOCC4)nc32)cn1
% of control [13]: -7.51% | % of control [14]: -0.03%

C=CC(=O)Nc1cc(-n2c(=O)ccc3cnc4ccc(-c5ccc(NS(C)(=O)=O)cc5)cc4c32)ccc1C
% of control ([15]; at 1 µM): 80% | % of control ([15]; at 10 µM): 95%
